Assay results as given in PubChem BioAssay AID1259411 (Chemical Carcinogenesis Research Information System (CCRIS), 2018).
Calls of active or inactive are those of the source. The rule behind the calls is not given here. *1 amine or outer side, *2 acyl side, *3 side chain or, on linkers, in order; H or OH if unused. Where a SMILES comes first, the peptide text is derived from it. Bridges are numbered along the chain shown (N, C = ends). Roman numbers before positions name the chains, in order. [ ]: non-standard residue; d: D form. Actinocin(9to1) = Cc1c2oc3c(C)ccc(C(=O)[*:1])c3nc-2c(C(=O)[*:2])c(N)c1=O; NMeV = CN[C@H](C(=O)O)C(C)C; Sar = CNCC(=O)O

Tested on: rodent carcinogenicity bioassays, tumor incidence
Assay: CCRIS carcinogenicity studies
How it was run: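 Archive of carcinogenicity, mutagenicity, tumor promotion and tumor inhibition results drawn from journals, NCI reports and other sources, expert-reviewed; covers 1985-2011 and is no longer updated.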

Which carcinogen call (Species: MOUSE, Route: ORAL, Tumor Site: Type of Lesion: HEMATOPOIETIC SYSTEM (LEUKEMIA), LYMPHATIC SYSTEM: LYMPHOMA, LIVER, Tumor Site: Type of Lesion: HEMATOPOIETIC SYSTEM (LEUKEMIA), LYMPHATIC SYSTEM: LYMPHOMA, LIVER) does the source give for `Nc1ccc(N=Nc2ccccc2)c(N)c1` here?
Its carcinogen call is “active; positive”.

`N#CN=C(N)N` was tested. Which carcinogen call (Species: RAT, Strain/Sex: F344/FEMALE, Route: ORAL, Dose: 0, 2.5, 5% IN DIET FOR 104 WK (STUDY DURATION: 113 WK), Dose: 0, 2.5, 5% IN DIET FOR 104 WK (STUDY DURATION: 113 WK)) did it give?
The carcinogen call was “inactive; negative”.

And the carcinogen call (Species: RAT, Strain/Sex: F344/MALE, Route: ORAL, Dose: 0, 2.5, 5% IN DIET FOR 104 WK (STUDY DURATION: 113 WK), Dose: 0, 2.5, 5% IN DIET FOR 104 WK (STUDY DURATION: 113 WK))?
The carcinogen call was “inactive; negative”.

How did the carcinogen call (Species: RAT, Route: INTRAPERITONEAL, Tumor Site: Type of Lesion: PERITONEAL CAVITY) turn out when `Cc1c2oc3c(C)ccc(C(=O)N[C@@H]4C(=O)N[C@H](C(C)C)C(=O)N5CCC[C@H]5C(=O)N(C)CC(=O)N(C)[C@@H](C(C)C)C(=O)O[C@@H]4C)c3nc-2c(C(=O)N[C@@H]2C(=O)N[C@H](C(C)C)C(=O)N3CCC[C@H]3C(=O)N(C)CC(=O)N(C)[C@@H](C(C)C)C(=O)O[C@@H]2C)c(N)c1=O` (I: T[dV]P[Sar][NMeV] / II: T[dV]P[Sar][NMeV]; ester I:1-I:C, II:1-II:C; linker I:N-II:N via Actinocin(9to1)) was run?
Its carcinogen call is “active; positive”.

Which carcinogen call (Species: MOUSE, Strain/Sex: SWISS/FEMALE, Route: ORAL, Dose: 0, 5 PPM IN DRINKING WATER FOR DURATION OF STUDY (STUDY DURATION: LIFE SPAN)) does the source give for `O=S(=O)([O-])[O-].[O]=[V+2]` here?
The carcinogen call was “inactive; negative”.

What about the carcinogen call (Species: MOUSE, Strain/Sex: SWISS/MALE, Route: ORAL, Dose: 0, 5 PPM IN DRINKING WATER FOR DURATION OF STUDY (STUDY DURATION: LIFE SPAN)) of the same molecule?
The carcinogen call was “inactive; negative”.

For `O=S(=O)(c1ccc(Cl)cc1)c1ccc(Cl)cc1`, which carcinogen call (Species: MOUSE, Strain/Sex: B6C3F1/FEMALE, Route: ORAL, Dose: 0, 30, 100, 300 PPM IN DIET FOR 104-105 WK (STUDY DURATION: 104-105 WK), Dose: 0, 30, 100, 300 PPM IN DIET FOR 104-105 WK (STUDY DURATION: 104-105 WK)) is on record?
The carcinogen call was “inactive; negative”.

And the carcinogen call (Species: MOUSE, Strain/Sex: B6C3F1/MALE, Route: ORAL, Dose: 0, 30, 100, 300 PPM IN DIET FOR 104-105 WK (STUDY DURATION: 104-105 WK), Dose: 0, 30, 100, 300 PPM IN DIET FOR 104-105 WK (STUDY DURATION: 104-105 WK))?
The carcinogen call was “inactive; negative”.

What about the carcinogen call (Species: RAT, Strain/Sex: F344/FEMALE, Route: ORAL, Dose: 0, 30, 100, 300 PPM IN DIET FOR 104-105 WK (STUDY DURATION: 104-105 WK), Dose: 0, 30, 100, 300 PPM IN DIET FOR 104-105 WK (STUDY DURATION: 104-105 WK)) of the same molecule?
The carcinogen call was “inactive; negative”.

What about the carcinogen call (Species: RAT, Strain/Sex: F344/MALE, Route: ORAL, Dose: 0, 10, 30, 100, 300 PPM IN DIET FOR 104-105 WK (STUDY DURATION: 104-105 WK), Dose: 0, 10, 30, 100, 300 PPM IN DIET FOR 104-105 WK (STUDY DURATION: 104-105 WK)) of the same molecule?
The carcinogen call was “inactive; negative”.

What does the source list for `ClC1=C(Cl)[C@]2(Cl)[C@H]3[C@H]([C@@H]4C=C[C@H]3C4)[C@@]1(Cl)C2(Cl)Cl`?
carcinogen call (Species: MOUSE, Strain/Sex: B6C3F1/FEMALE, Route: ORAL, Dose: 0, 3, 6 PPM IN DIET FOR 80 WK (STUDY DURATION: 112-113 WK), Dose: 0, 3, 6 PPM IN DIET FOR 80 WK (STUDY DURATION: 112-113 WK)): inactive; negative; carcinogen call (Species: MOUSE, Strain/Sex: B6C3F1/MALE, Route: ORAL, Dose: 0, 4, 8 PPM IN DIET FOR 74 WK (STUDY DURATION: 111-112 WK), Dose: 0, 4, 8 PPM IN DIET FOR 74 WK (STUDY DURATION: 111-112 WK), Tumor Site: Type of Lesion: LIVER: HEPATOCELLULAR CARCINOMA): active; positive; carcinogen call (Species: RAT, Strain/Sex: OSBORNE-MENDEL/FEMALE, Route: ORAL, Dose: 0, 30, 60 PPM IN DIET FOR 80 WK (STUDY DURATION: 112-113 WK), Dose: 0, 30, 60 PPM IN DIET FOR 80 WK (STUDY DURATION: 112-113 WK), Tumor Site: Type of Lesion: THYROID GLAND: FOLLICULAR CELL ADENOMA OR CARCINOMA, ADRENAL GLAND: CORTICAL ADENOMA): equivocal; carcinogen call (Species: RAT, Strain/Sex: OSBORNE-MENDEL/MALE, Route: ORAL, Dose: 0, 30, 60 PPM IN DIET FOR 74 WK (STUDY DURATION: 111-112 WK), Dose: 0, 30, 60 PPM IN DIET FOR 74 WK (STUDY DURATION: 111-112 WK), Tumor Site: Type of Lesion: THYROID GLAND: FOLLICULAR CELL ADENOMA OR CARCINOMA): equivocal

Which results are given for `NC(=O)N/N=C/c1ccc([N+](=O)[O-])o1`?
carcinogen call (Species: MOUSE, Strain/Sex: B6C3F1/FEMALE, Route: ORAL, Dose: 0, 150, 310 PPM IN DIET (STUDY DURATION: 2 YR), Dose: 0, 150, 310 PPM IN DIET (STUDY DURATION: 2 YR), Tumor Site: Type of Lesion: OVARIES: GRANULOSA CELL TUMOR): active; positive; carcinogen call (Species: MOUSE, Strain/Sex: B6C3F1/FEMALE, Route: ORAL, Dose: 0, 150, 310 PPM IN DIET FOR 103 WK (STUDY DURATION: 105 WK), Dose: 0, 150, 310 PPM IN DIET FOR 103 WK (STUDY DURATION: 105 WK), Tumor Site: Type of Lesion: OVARY: GRANULOSA CELL TUMOR, OVARY: GRANULOSA CELL TUMOR OR LUTEOMA;OVARY: MIXED TUMOR,BENIGN, OVARY: TUBULAR CELL ADENO, Tumor Site: Type of Lesion: OVARY: GRANULOSA CELL TUMOR, OVARY: GRANULOSA CELL TUMOR OR LUTEOMA;OVARY: MIXED TUMOR,BENIGN, OVARY: TUBULAR CELL ADENO): active; positive; carcinogen call (Species: MOUSE, Strain/Sex: B6C3F1/MALE, Route: ORAL, Dose: 0, 150, 310 PPM IN DIET (STUDY DURATION: 2 YR), Dose: 0, 150, 310 PPM IN DIET (STUDY DURATION: 2 YR)): inactive; negative; carcinogen call (Species: MOUSE, Strain/Sex: B6C3F1/MALE, Route: ORAL, Dose: 0, 150, 310 PPM IN DIET FOR 103 WK (STUDY DURATION: 105 WK), Dose: 0, 150, 310 PPM IN DIET FOR 103 WK (STUDY DURATION: 105 WK)): inactive; negative; carcinogen call (Species: MOUSE, Strain/Sex: ICR/MALE, FEMALE, Route: SUBCUTANEOUS, Dose: 0, 75 UG/G ONCE WITHIN 12 HR OF BIRTH AND ONCE ON DAYS 7,14 AND 21 OF AGE (STUDY DURATION: 32 WK), Tumor Site: Type of Lesion: LUNG: PAPILLARY ADENOMA): active; positive; carcinogen call (Species: MOUSE, Strain/Sex: ICR/MALE, FEMALE, Route: TRANSPLACENTAL, Dose: 0, 75 UG/G ADMINISTERED SUBCUTANEOUSLY TO MOTHERS ON DAYS 13, 15 AND 17 OF GESTATION (STUDY DURATION: 33 WK)): inactive; negative; carcinogen call (Species: RAT, Strain/Sex: F344/FEMALE, Route: ORAL, Dose: 0, 310, 620 PPM IN DIET FOR 103 WK (STUDY DURATION: 105 WK), Dose: 0, 310, 620 PPM IN DIET FOR 103 WK (STUDY DURATION: 105 WK), Tumor Site: Type of Lesion: MAMMARY GLAND: FIBROADENOMA): active; positive; carcinogen call (Species: RAT, Strain/Sex: F344/MALE, Route: ORAL, Dose: 0, 310, 620 PPM IN DIET FOR 103 WK (STUDY DURATION: 105 WK), Dose: 0, 310, 620 PPM IN DIET FOR 103 WK (STUDY DURATION: 105 WK), Tumor Site: Type of Lesion: SEBACEOUS GLAND: ADENOMA, SKIN: TRICHOEPITHELIOMA, TUNICA VAGINALIS: MESOTHELIOMA, PREPUTIAL GLAND: ADENOMA, CARCINOMA, Tumor Site: Type of Lesion: SEBACEOUS GLAND: ADENOMA, SKIN: TRICHOEPITHELIOMA, TUNICA VAGINALIS: MESOTHELIOMA, PREPUTIAL GLAND: ADENOMA, CARCINOMA): equivocal; carcinogen call (Species: RAT, Strain/Sex: F344 INBRED/FEMALE, Route: ORAL, Dose: 0, 310, 620 PPM IN DIET (STUDY DURATION: 2 YR), Dose: 0, 310, 620 PPM IN DIET (STUDY DURATION: 2 YR), Tumor Site: Type of Lesion: MAMMARY GLAND: FIBROADENOMA): active; positive
